Columns and labels:
[1] = system: B. cereus ATCC 11778; assay: MIC, NCCLS broth microdilution assay; type: cell-based, Bacillus cereus; conditions: B. cereus ATCC 11778
[2] = system: E. coli ATCC 25922; assay: MIC, NCCLS broth microdilution assay; type: cell-based, Escherichia coli; conditions: E. coli ATCC 25922
[3] = system: S. aureus ATCC 27660; assay: MIC, NCCLS broth microdilution assay; type: cell-based, Staphylococcus aureus; conditions: S. aureus ATCC 27660, methicillin resistant strain (MRSA)
From the text: (§1) In vitro biological activity data were collected for a variety of microorganisms, including Bacillus cereus (ATCC 11778), Staphylococcus aureus (ATCC 33591; ATCC 27660, a methicillin resistant strain (MRSA); ATCC 13709, a methicillin sensitive strain (MSSA)), Escherichia coli (ATCC 25922), Enterococcus faecalis (ATCC 29212), Streptococcus pneumoniae (ATCC 49619; ATCC 51422, a penicillin resistant strain (PRSP)), Enterococcus faecium (ATCC 51559, a vancomycin resistant strain (VRE)), and Staphylococcus epidermidis (ATCC 12228).
(§2) The minimal inhibition concentration (MIC) of these compounds was determined using the National Committee for Clinical Laboratory Standards (NCCLS) broth microdilution assay in microtiter plates, as set forth in: (1) the guidelines of the National Committee for Clinical Laboratory Standards (NCCLS) Document M7-A4 (NCCLS, 1997); (2) the guidelines of the National Committee for Clinical Laboratory Standards (NCCLS) Document M11-A4 (NCCLS, 1997); and (3) the guidelines and reference method of the National Committee for Clinical Laboratory Standards (NCCLS) Document M27 -T (NCCLS, 1995).

[4] = system: S. aureus ATCC 33591; assay: MIC, NCCLS broth microdilution assay; type: cell-based, Staphylococcus aureus; conditions: S. aureus ATCC 33591
From the text: as §1, §2

[5] = system: E. faecalis ATCC 29212; assay: MIC, NCCLS broth microdilution assay; type: cell-based, Enterococcus faecalis; conditions: E. faecalis ATCC 29212
[6] = system: S. pneumoniae ATCC 49619; assay: MIC, NCCLS broth microdilution assay; type: cell-based, Streptococcus pneumoniae; conditions: S. pneumoniae ATCC 49619
[7] = system: C. albicans ATCC 38247; assay: MIC, antifungal assay; type: cell-based, Candida albicans; conditions: C. albicans ATCC 38247
From the text: In vitro biological activity data were collected for a variety of microorganisms, including Bacillus cereus (ATCC 11778), Staphylococcus aureus (ATCC 33591; ATCC 27660, a methicillin resistant strain (MRSA); ATCC 13709, a methicillin sensitive strain (MSSA)), Escherichia coli (ATCC 25922), Enterococcus faecalis (ATCC 29212), Streptococcus pneumoniae (ATCC 49619; ATCC 51422, a penicillin resistant strain (PRSP)), Enterococcus faecium (ATCC 51559, a vancomycin resistant strain (VRE)), and Staphylococcus epidermidis (ATCC 12228). Additionally, antifungal activity data were collected for Candida albicans (ATCC 38247).
The minimal inhibition concentration (MIC) of these compounds was determined using the National Committee for Clinical Laboratory Standards (NCCLS) broth microdilution assay in microtiter plates, as set forth in: (1) the guidelines of the National Committee for Clinical Laboratory Standards (NCCLS) Document M7-A4 (NCCLS, 1997); (2) the guidelines of the National Committee for Clinical Laboratory Standards (NCCLS) Document M11-A4 (NCCLS, 1997); and (3) the guidelines and reference method of the National Committee for Clinical Laboratory Standards (NCCLS) Document M27 -T (NCCLS, 1995). For antifungal assays, the method recommended in Murray, PR., 1995 Manual of Clinical Microbiology (ASM Press, Washington, D.C.), was employed.

[8] = system: S. aureus ATCC 13709; assay: MIC, NCCLS broth microdilution assay; type: cell-based, Staphylococcus aureus; conditions: S. aureus ATCC 13709, methicillin sensitive strain (MSSA)
From the text: as §1, §2

Compound	Minimum Inhibitory Concentration (MIC) [1]	Minimum Inhibitory Concentration (MIC) [2]	Minimum Inhibitory Concentration (MIC) [3]	Minimum Inhibitory Concentration (MIC) [4]	Minimum Inhibitory Concentration (MIC) [5]	Minimum Inhibitory Concentration (MIC) [6]	Minimum Inhibitory Concentration (MIC) [7]	Minimum Inhibitory Concentration (MIC) [8]
O=C(Nc1ccc(-c2cc3ccccc3[nH]2)cc1)c1nsc(NCCN2CCCC2)c1Cl [Compound A-58]	+ (12 ≦ MIC ≦ 32)	>32 µg/mL	++ (4 < MIC < 12)	++ (4 < MIC < 12)	++ (4 < MIC < 12)	+ (12 ≦ MIC ≦ 32)	+++ (MIC ≦ 4)	+ (12 ≦ MIC ≦ 32)
O=C(Nc1ccc(-c2cc3ccccc3o2)nc1)c1nsc(NCCN2CCNCC2)c1Cl [Compound A-35]	>32 µg/mL	>32 µg/mL	+ (12 ≦ MIC ≦ 32)	>32 µg/mL	+ (12 ≦ MIC ≦ 32)	>32 µg/mL	+++ (MIC ≦ 4)	+ (12 ≦ MIC ≦ 32)
O=C(Nc1ccc(-c2cc3ccccc3o2)cc1)c1cccnc1NCCN1CCCC1 [Compound A-15]	++ (4 < MIC < 12)	>32 µg/mL	+++ (MIC ≦ 4)	–	+++ (MIC ≦ 4)	+ (12 ≦ MIC ≦ 32)	+ (12 ≦ MIC ≦ 32)	+++ (MIC ≦ 4)
NCCOCCOCCNc1snc(C(=O)Nc2ccc(-c3cc4ccccc4o3)cc2)c1Cl [Compound A-6]	>32 µg/mL	>32 µg/mL	+++ (MIC ≦ 4)	–	+++ (MIC ≦ 4)	>32 µg/mL	++ (4 < MIC < 12)	+++ (MIC ≦ 4)
O=C(Nc1ccc(-c2cc3ccccc3o2)cc1)c1cccnc1N1CCNCC1 [Compound A-20]	+ (12 ≦ MIC ≦ 32)	+ (12 ≦ MIC ≦ 32)	++ (4 < MIC < 12)	–	+ (12 ≦ MIC ≦ 32)	+ (12 ≦ MIC ≦ 32)	++ (4 < MIC < 12)	++ (4 < MIC < 12)
Cc1ccc2nc(-c3ccc(NC(=O)c4nsc(NCCCN(C)CCCN)c4Cl)cc3)sc2c1 [Compound A-51]	+++ (MIC ≦ 4)	>32 µg/mL	+++ (MIC ≦ 4)	–	+++ (MIC ≦ 4)	+++ (MIC ≦ 4)	+++ (MIC ≦ 4)	+++ (MIC ≦ 4)
NCCN1CCN(c2ncccc2C(=O)Nc2ccc(-c3cc4ccccc4o3)cc2)CC1 [Compound A-17]	+ (12 ≦ MIC ≦ 32)	>32 µg/mL	+ (12 ≦ MIC ≦ 32)	–	+ (12 ≦ MIC ≦ 32)	+ (12 ≦ MIC ≦ 32)	+ (12 ≦ MIC ≦ 32)	++ (4 < MIC < 12)
NCCOCCOCCNc1ncccc1C(=O)Nc1ccc(-c2cc3ccccc3o2)cc1 [Compound A-22]	++ (4 < MIC < 12)	>32 µg/mL	++ (4 < MIC < 12)	–	++ (4 < MIC < 12)	+ (12 ≦ MIC ≦ 32)	+++ (MIC ≦ 4)	++ (4 < MIC < 12)
O=C(Nc1ccc(-c2cc3ccccc3o2)cc1)c1nsc(NCCN2CCNCC2)c1Cl [Compound A-1]	+++ (MIC ≦ 4)	>32 µg/mL	+++ (MIC ≦ 4)	–	+++ (MIC ≦ 4)	+ (12 ≦ MIC ≦ 32)	+ (12 ≦ MIC ≦ 32)	+++ (MIC ≦ 4)
Cc1ccc2nc(-c3ccc(NC(=O)c4nsc(NCCN)c4Cl)cc3)sc2c1 [Compound A-52]	+ (12 ≦ MIC ≦ 32)	>32 µg/mL	–	+++ (MIC ≦ 4)	+++ (MIC ≦ 4)	>32 µg/mL	>32 µg/mL	+++ (MIC ≦ 4)
O=C(Nc1ccc(-c2cc3ccccc3o2)cc1)c1cccnc1NCCN1CCCCC1 [Compound A-13]	+++ (MIC ≦ 4)	>32 µg/mL	+++ (MIC ≦ 4)	–	+++ (MIC ≦ 4)	+ (12 ≦ MIC ≦ 32)	+ (12 ≦ MIC ≦ 32)	+++ (MIC ≦ 4)
NCCCCNc1snc(C(=O)Nc2ccc(-c3cc4ccccc4o3)cc2)c1Cl [Compound A-4]	+ (12 ≦ MIC ≦ 32)	>32 µg/mL	+++ (MIC ≦ 4)	–	+++ (MIC ≦ 4)	>32 µg/mL	+ (12 ≦ MIC ≦ 32)	+++ (MIC ≦ 4)
O=C(Nc1ccc(-c2cc3ccccc3o2)cc1)c1cccnc1NCCN1CCSCC1 [Compound A-14]	>32 µg/mL	>32 µg/mL	>32 µg/mL	–	>32 µg/mL	>32 µg/mL	>32 µg/mL	>32 µg/mL
CCN(CC)CCCNc1snc(C(=O)Nc2ccc(-c3cc4ccccc4o3)cc2)c1Cl [Compound A-5]	++ (4 < MIC < 12)	>32 µg/mL	+++ (MIC ≦ 4)	–	+++ (MIC ≦ 4)	>32 µg/mL	++ (4 < MIC < 12)	+++ (MIC ≦ 4)
O=C(Nc1ccc(-c2cc3ccccc3o2)cc1)c1cccnc1NCCN1CCNCC1 [Compound A-10]	+ (12 ≦ MIC ≦ 32)	>32 µg/mL	–	–	+ (12 ≦ MIC ≦ 32)	+ (12 ≦ MIC ≦ 32)	>32 µg/mL	–
O=C(Nc1ccc(-c2cc3ccccc3o2)cc1)c1cccnc1NCCCN1CCOCC1 [Compound A-16]	>32 µg/mL	>32 µg/mL	+++ (MIC ≦ 4)	–	++ (4 < MIC < 12)	+ (12 ≦ MIC ≦ 32)	+ (12 ≦ MIC ≦ 32)	+++ (MIC ≦ 4)
NCCCNc1ncccc1C(=O)Nc1ccc(-c2cc3ccccc3o2)cc1 [Compound A-9]	+++ (MIC ≦ 4)	+ (12 ≦ MIC ≦ 32)	+++ (MIC ≦ 4)	–	+++ (MIC ≦ 4)	+ (12 ≦ MIC ≦ 32)	+ (12 ≦ MIC ≦ 32)	+++ (MIC ≦ 4)

Source: patent US7498349B2, “Biaryl compounds having anti-infective activity” (Genesoft Pharmaceuticals, Inc., priority 2002, dated 2009)
